Consider four compounds from patent publication US20060111333A1, “Structural, behavioral characterization, and synthesis of attractants for migratory lamprey” (priority 2004, published 2006).

Assay [1] concerns adult lamprey olfactory system. The following applies: with high specificity; Polkinghorne 2001, Li 1995, Li 1997; cited from earlier work.
Assay [2] concerns olfactory epithelium of migratory adult sea lamprey. Kind of assay: electro-olfactogram (EOG) recording of olfactory activity. The class given is in vivo. The following applies: odorant pulsed over the nose, FIG. 2 insets. The text has this: Using electro-olfactogram recording (EOG) to screen for olfactory activity. The EOG measures extracellular voltage transients believed to reflect large numbers of olfactory receptor generator potential (Sorensen et al. in: The Physiology of Fishes, 2nd ed., (ed., R. E. Evans), 375-406, (CRC Press, FL, 1998)). To accomplish EOG recording, freshly-captured migratory adult sea lamprey were anesthetized, immobilized, and their olfactory epithelium exposed following established protocols (Li et al., J. Gen. Physiol., 105, 569-589 (1995); and Li et al., Petromyzon marinus, J. Comp Physiol. A., 180, 429-438 (1997)). One electrode was placed on the head and the other positioned to find a region of maximum sensitivity to our standard, 10^−5 M L-arginine. Test odorants were then pulsed over the nose for 3-sec intervals with breaks. All stimuli were tested at least twice. Aliquots of appropriate solvents were diluted and tested as controls.

In the next assay the test system is migratory sea lampreys. The assay can be described thus: behavioral assay in large 2-choice maze. The format is in vivo, sea lamprey. The following applies: 14 trials of 4 lampreys. How it is done: Confirming biological activity using a behavioral assay. Migratory sea lampreys were tested at night in large (9×1.8 meters (m)) 2-choice mazes supplied with natural lake and rivers waters (400 L min^−1) designed to simulate the scenario of lamprey encountering a river plume in a lake. Test odors were pumped down one side (in a way shown by dye to effect complete mixing) and appropriate controls (carriers, etc.) down the other. Trials lasted 15 min and commenced when groups of 4 sea lamprey were released from the upstream section of the maze and the time they spent in the stimulus side or its control noted. Experiments typically employed 14 trails and were evaluated by t-test after arc-sign transformation (Vrieze et al., Can. J. Fish. Aquat. Sci., 58, 2374-2385 (2001)).

In the case of `C[C@H](CCC(=O)O)[C@H]1CC[C@H]2[C@@H]3[C@H](O)C[C@H]4C[C@H](O)CC[C@]4(C)[C@H]3C[C@H](O)[C@]12C` [ACA, allocholic acid], the “concentration at which the adult lamprey olfactory system detects the product” value in assay [1] is reported as 10^−11 Molar (M).

As to `C[C@H](CCCOS(=O)(=O)[O-])[C@H]1CC[C@H]2[C@@H]3[C@H](O)C[C@H]4C[C@H](O)CC[C@]4(C)[C@H]3C[C@H](O)[C@]12C.[Na+]` [compound 1, petromyzonol sulfate, reference compound], the “EOG threshold (lowest concentration detected by EOG recording)” value (“EOG threshold” for short) in assay [2] is on record as “below 10^−12 M”. In addition, in the assay on migratory sea lampreys (at 10^−11 M), the “behavioral activity (attraction) in maze” value was “only weak and somewhat inconsistent behavioral activity”. In assay [1], the “concentration at which the adult lamprey olfactory system detects the product” value is reported as 10^−12 Molar (M).

Turning to `CC(C)[C@@H](CC[C@@H](C)[C@H]1CC[C@H]2[C@@H]3[C@H](OS(=O)(=O)[O-])C[C@H]4C[C@@H](NCCCN5CCCC5=O)CC[C@]4(C)[C@H]3CC[C@]12C)OS(=O)(=O)[O-].[Na+].[Na+]` [compound 3, petromyzonamine disulfate], the “EOG threshold” value in assay [2] is recorded as 10^−13 M. Also, the “behavioral activity (attraction) in maze” value in the assay with migratory sea lampreys (at 10^−12 M) and in the assay on migratory sea lampreys (at 10^−13 M) was “strongly attracted” in each case.

In the case of petromyzosterol disulfate [compound 2], the “EOG threshold” value in assay [2] is listed as 10^−12 M. The “behavioral activity (attraction) in maze” value in the assay with migratory sea lampreys (at 10^−11 M) is “consistently attractive”.
